Source: patent publication US12091696B2, “O-methyltransferase protein with highly specific catalytic function for multiple bias parent nuclei and encoding gene and use thereof” (INSTITUTE OF CHINESE MATERIA MEDICA CHINA ACADEMY OF …, priority 2023, dated 2024)

Columns and labels:
NnOMT6N323A = experiment: In vitro enzymatic activity test of NnOMT6N323A (O-methylation of benzylisoquinoline substrates, UPLC-QTOF-MS/MS); format: biochemical, Nelumbo nucifera; settings: for catalytic (O-methylation) activity of NnOMT6N323A on substrate, in words / conversion rate (O-methylation of substrate by NnOMT6N323A): pH 8.0, 37° C., 12 h, 100 μM substrate, 200 μM SAM, 50 μg purified protein
Procedure: (§1) An in vitro enzymatic activity reaction was conducted at a pH value of 8.0 and 37° C. for 12 h in a 100 μL system containing 50 mM of a potassium phosphate buffer, 100 μM of a substrate, 200 μM of a SAM donor, and 50 μg of the purified protein. 100 μL of methanol was added to terminate the above reaction, the protein was centrifuged at 12,000×g for 30 min in a centrifuge, and a resulting supernatant was passed through a 0.22 μm microporous membrane and injected into UPLC-QTOF-MS/MS for detection. A sample prepared in a same way with boiled purified protein was served as a negative control.
The NnOMT6N323A was studied for substrate promiscuity with 15 benzylisoquinoline compounds (norcoclaurine (1), coclaurine (2), N-methylcoclaurine (3), norarmepavine (4), armepavine (5), lotusine (6), asimilobine (7), N-methlyasimilobine (8), lirinidine (9), liensinine (10), isoliensinine (11), neferine (12), scoulerine (13), tetrahydrocolumbamine (14), and jatrorrhizine (15)).
The chromatographic conditions were as follows: a chromatographic column was an ACQUITY UPLC CSH C18 column (2.1 mm×50 mm, 1.7 μm). A mobile phase A was 0.1% formic acid water, and a mobile phase B was acetonitrile; gradient elution was conducted, including: 0-0.5 min, 2% B; 0.5-1 min, 2%-5% B; 1-5 min, 5%-9% B; […], 9%-10% B; […], 10%-15% B; 16-20 min, 15%-45% B; 20-22 min, 45% B-100% B. A sample injection volume was 2 μL, a column temperature was 35° C., and a flow rate was 0.3 mL/min.
The mass spectrometry conditions were as follows: an ion source was a Dusal ESI source; the substrate was detected in a positive ion (PI) mode with a scan range of m/z 100-1000. […] MS/MS analysis was conducted with a collision energy of 30 eV and a collision energy voltage of 20 V.

[1] = tested on: wild-type O-methyltransferase; experiment: In vitro enzymatic activity of wild-type O-methyltransferase (comparison with mutant); format: biochemical, Nelumbo nucifera; settings: same method as Example 1
Procedure: as §1
A specific experimental method was the same as that in Example 1.

Compound	catalytic (O-methylation) activity of NnOMT6N323A on substrate, in words (NnOMT6N323A)	conversion rate (O-methylation of substrate by NnOMT6N323A) (NnOMT6N323A)	enhancement of catalytic activity of mutant NnOMT6N323A compared with wild-type O-methyltransferase (NnOMT6N323A; mutant versus wild-type, FIG. 4)	catalytic activity of wild-type O-methyltransferase on substrate, in words [1]
Oc1ccc(CC2NCCc3cc(O)c(O)cc32)cc1 (stereo not drawn) [Compound 1, norcoclaurine]	could catalyze the O-methylation	63.7%	–	–
COc1cc2c(cc1O)C(Cc1ccc(O)cc1)NCC2 (stereo not drawn) [Compound 2, coclaurine]	could catalyze the O-methylation	34.8%	about two times	–
COc1cc2c(cc1O)[C@@H](Cc1ccc(O)cc1)N(C)CC2 [Compound 3, N-methylcoclaurine]	could catalyze the O-methylation	47.6%	–	–
COc1cc2c(cc1O)[C@@H]1Cc3ccc(OC)c(O)c3CN1CC2 [Compound 13, scoulerine]	could catalyze the O-methylation	–	–	–
COc1cc2c(cc1OC)[C@@H]1Cc3ccc(OC)c(O)c3CN1CC2 [Compound 13a, tetrahydropalmatrubine]	further catalyzed	–	–	–
COc1cc2c(cc1O)[C@@H]1Cc3ccc(OC)c(OC)c3CN1CC2 [Compound 14, tetrahydrocolumbamine]	could catalyze the O-methylation	about 42.3%	–	no catalytic activity
COc1cc2c(cc1O)CC[n+]1cc3c(OC)c(OC)ccc3cc1-2 [Compound 15, jatrorrhizine]	no activity	–	–	–
N-methlyasimilobine [Compound 8]	could catalyze the O-methylation	55.4%	–	–
asimilobine [Compound 7]	could catalyze the O-methylation	60.8%	–	–
lirinidine [Compound 9]	no catalytic activity	–	–	–
